The values that follow come from ChEMBL document CHEMBL3882386, “Novel methods for identifying improved, non-sedating alpha-2 agonists” (2005).

Calls of active or inactive are those of the source. The rule behind the calls is not given here.

For data set [1], the system named is Mus musculus. Put plainly: Reduction in […]-induced tactile hypersensitivity in C57BL/6 mouse at 10 ug/kg, ip relative to control. The class given is functional. Details: scale not given: the % may be the effect or the level left.
Data set [2] relates to Mus musculus. Put plainly: Induction of sedation in C57BL/6 mouse at 100 ug/kg, ip relative to control. It counts as organism-based. The conditions noted are these: in vivo, 0.1 mg/kg.
The target in data set [3] is T1, Alpha-2C adrenergic receptor (Mus musculus, UniProt Q01337).
T1 sequence (Q01337 whole entry): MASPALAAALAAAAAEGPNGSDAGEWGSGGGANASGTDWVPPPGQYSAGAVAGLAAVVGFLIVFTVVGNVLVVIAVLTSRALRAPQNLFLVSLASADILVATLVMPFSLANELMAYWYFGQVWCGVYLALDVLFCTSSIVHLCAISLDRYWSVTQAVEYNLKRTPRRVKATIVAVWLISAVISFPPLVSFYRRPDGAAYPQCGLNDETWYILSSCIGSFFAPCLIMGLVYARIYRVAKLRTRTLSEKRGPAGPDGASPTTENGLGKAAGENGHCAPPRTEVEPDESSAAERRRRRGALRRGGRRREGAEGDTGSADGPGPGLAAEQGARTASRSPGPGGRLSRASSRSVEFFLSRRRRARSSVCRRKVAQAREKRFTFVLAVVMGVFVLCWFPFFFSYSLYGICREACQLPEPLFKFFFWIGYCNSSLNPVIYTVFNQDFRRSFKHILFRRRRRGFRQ
Nature of the data set: Binding affinity to mouse alpha-2C receptor expressed in COS7 cells. The class given is cell-based, COS-7.

The target of data set [4] is T2, Alpha-2A adrenergic receptor (Mus musculus, UniProt Q01338).
T2 sequence (Q01338 whole entry): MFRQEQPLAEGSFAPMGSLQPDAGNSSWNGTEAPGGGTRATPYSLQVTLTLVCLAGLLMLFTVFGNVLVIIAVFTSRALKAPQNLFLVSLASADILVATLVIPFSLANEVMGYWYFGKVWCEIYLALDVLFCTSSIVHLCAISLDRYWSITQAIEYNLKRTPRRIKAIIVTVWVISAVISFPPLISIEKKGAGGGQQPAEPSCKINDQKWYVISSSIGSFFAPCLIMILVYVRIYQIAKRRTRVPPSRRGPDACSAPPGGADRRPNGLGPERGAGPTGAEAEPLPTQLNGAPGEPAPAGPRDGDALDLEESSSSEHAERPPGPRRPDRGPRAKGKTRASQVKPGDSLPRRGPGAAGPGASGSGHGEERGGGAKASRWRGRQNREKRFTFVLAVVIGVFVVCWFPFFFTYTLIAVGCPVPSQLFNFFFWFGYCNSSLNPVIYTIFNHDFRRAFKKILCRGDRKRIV
Nature of the data set: Binding affinity to mouse alpha-2A receptor expressed in COS7 cells. The class given is cell-based, COS-7.

For data set [5], the system named is Mus musculus. Nature of the data set: Reduction in […]-induced tactile hypersensitivity in C57BL/6 mouse at 1 ug/kg, po relative to control. It counts as functional. On the set-up: scale not given: the % may be the effect or the level left.
In data set [6] the test system is Mus musculus. Nature of the data set: Induction of sedation in C57BL/6 mouse at 100 to 1000 ug/kg, po relative to control. It counts as organism-based. Particulars: in vivo.
Data set [7] has as its system Mus musculus. Put plainly: Reduction in […]-induced tactile hypersensitivity in C57BL/6 mouse at 1 ug/kg, ip relative to control. It counts as functional. On the set-up: scale not given: the % may be the effect or the level left.
Data set [8] relates to Mus musculus. Nature of the data set: Induction of sedation in C57BL/6 mouse at 100 to 1000 ug/kg, ip relative to control. The class given is organism-based. Particulars: in vivo.
For data set [9], the system named is Mus musculus. Put plainly: Reduction in sulprostone-induced tactile hypersensitivity in C57BL/6 mouse at 0.1 to 1000 ug/kg, po. It counts as functional.
The subject of data set [10] is Mus musculus. Nature of the data set: Induction of sedation in C57BL/6 mouse at 0.1 to 1000 ug/kg, po. Particulars: in vivo.

Regarding `OCC1=CCCC(Cc2c[nH]cn2)C1` (stereo not given), the values for the Activity in data set [1] and in data set [2] were greater than 50% and less than 30%, respectively.
In the case of `NC[C@H](O)c1ccc(O)c(O)c1` [NOREPINEPHRINE], the figures for the Ki in [3] and in data set [4] were 0.65 µM and 5.8 µM, respectively.
Turning to `Cc1cccc([C@H](C)c2c[nH]c(=S)[nH]2)c1C` [REZATOMIDINE], the Activity was 50% in data set [5]; less than 30% in data set [6]; 50% in [7]; less than 30% in data set [8]; “Non-Toxic” in data set [10]. Besides, the outcome in data set [9] was Active.

For orientation: Ki means the dissociation constant of the complex between target and ligand, obtained from inhibition or displacement.
